{"source": "paper PMC10147685", "about": "“Safety, tolerability, and pharmacokinetics of Aurora kinase B inhibitor AZD2811: a phase 1 dose-finding study in patients with advanced solid tumours” (British Journal of Cancer, 2023)", "tested_on": "patients with advanced solid tumours", "experiment": "Phase 1 dose-escalation: safety, DLTs, AEs (CTCAE v4.03)", "type": "in vivo", "method": "AZD2811 was administered as an IV infusion over 2 h. The study included 12 dose-escalation cohorts. In Cohorts 1–6, dosing took place on Days 1 and 4 of a 28-day cycle, at 15 mg, 25 mg, 38 mg, 51 mg, 100 mg, and 200 mg. In Cohort 1, the starting dose was to be administered to a single patient on Days 1 and 4. […] Starting with Cohort 2, at least 3 evaluable patients were enrolled at each dose level (3 + 3 design) and were evaluated for 1 cycle before escalation to the next dose level. If one patient experienced a DLT, an additional 3 patients were treated with the same dose. Therefore, a maximum of 6 evaluable patients could be enrolled per dose level.\nIn Cohort 7, the Day 4 dose was removed from the schedule, and patients received AZD2811 200 mg on Day 1 of a 28-day cycle. Granulocyte colony-stimulating factor (G-CSF; filgrastim [short-acting G-CSF] or pegfilgrastim [long-acting G-CSF]) as primary prophylaxis for neutropenia was optional in Cohorts 7–9. In Cohorts 8–12, the cycle length was reduced, so dosing occurred on Day 1 of a 21-day cycle, at doses of 200–600 mg. Patients in Cohorts 10–12 received mandatory G-CSF on Day 8 after dosing in Cycle 1 as primary prophylaxis for neutropenia. PEGylated G-CSF (e.g. pegfilgrastim) could not be given later than Day 8 (in a 21-day cycle) due to its long half-life. G-CSF had to be discontinued at least 48 h prior to the next dose of AZD2811.\nA DLT was defined as any of the following toxicities that occurred during the DLT evaluation period (the first 28 days [if a 28-day cycle] or the first 21 days [if a 21-day cycle] from the start of AZD2811), unless unequivocally due to underlying malignancy or an extraneous cause: grade 4 neutropenia for >7 days or febrile neutropenia; grade 4 thrombocytopenia or grade 3 thrombocytopenia associated with bleeding; concurrent grade ≥3 elevation of total bilirubin, alanine aminotransferase (ALT), aspartate aminotransferase (AST) or alkaline phosphatase (ALP) lasting >48 h, or any change in liver function test results consistent with Hy’s Law; any grade ≥3 non-haematological AE (except grade 3 nausea, vomiting, stomatitis and/or diarrhoea that was controlled within 4 days with standard supportive care, or grade 3 elevations in ALT/AST that return to meet initial eligibility criteria within 7 days of study drug interruption); inability to receive all doses in Cycle 1 due to treatment-related toxicity; or grade ≥2 non-haematological toxicity at any time during treatment that was deemed to be dose-limiting by the investigator and the medical monitor.\nAEs were assessed throughout the treatment and follow-up periods. Patients were followed until all treatment-related toxicity resolved, or for at least 30 days post-study drug discontinuation. AEs were graded according to CTCAE v4.03. Venous blood samples (4 mL) for measurement of AZD2811 concentrations were collected at Cycle 1 Days 1–6, 8, 15, 16, and 22 and Cycle 2 Day 1 in Cohorts 1–6; Cycle 1 Days 1, 4, 8, 12, and 22 in Cohort 7; Cycle 1 Days 1, 4, 8, 12, and 15 and Cycle 2 Day 1 in Cohorts 8–12. Tumour imaging assessments using computed tomography or magnetic resonance imaging of the chest and abdomen/pelvis were performed at screening (≤28 days prior to initiation of treatment), and then every 2 cycles.\nThe safety analysis set comprised all patients who received at least one dose of AZD2811. The PK analysis set comprised all patients who received at least one dose of AZD2811 with at least one reportable concentration. […] There was no formal statistical analysis of safety and efficacy data. The numbers of patients experiencing each AE were summarised by Medical Dictionary for Regulatory Activities (MedDRA) version 22.1 system organ class, MedDRA preferred term, and CTCAE grade. The ORR and best overall response based on RECIST 1.1 were summarised. AZD2811 blood concentrations and derived PK parameters were summarised by dose regimen. […]", "data": [{"smiles": "CCN(CCO)CCCOc1ccc2c(Nc3cc(CC(=O)Nc4cccc(F)c4)n[nH]3)ncnc2c1", "note": "[AZD2811, AZD1152 hydroxyquinazoline pyrazole anilide]", "values": [{"measurement": "MTD/RP2D", "setting": "Day 1 of a 21-day cycle with mandatory G-CSF on Day 8", "value": 500, "unit": "mg"}, {"measurement": "Dose reduction due to AZD2811-related AEs, patients", "setting": "human, in vivo", "value": 4.5, "unit": "%"}, {"measurement": "Dose reductions due to AZD2811-related AEs, patients", "setting": "human, in vivo", "value": 17.2, "unit": "%"}, {"measurement": "Doses at which ANC counts <500 cells/μL were observed", "setting": "human, in vivo", "value": "≥ 200", "unit": "mg/cycle"}, {"measurement": "Doses that elicit a pharmacological response in bone marrow", "setting": "human, in vivo", "value": "> 200", "unit": "mg/cycle"}, {"measurement": "Neutropenia", "setting": "in vivo", "value": "not observed"}, {"measurement": "Patients with dose-limiting toxicities", "setting": "in vivo", "value": "Five"}, {"measurement": "Deaths due to AEs on treatment", "setting": "not considered related to AZD2811: cardiac arrest (Cohort 9), sepsis (Cohort 11)", "value": "Two"}]}]}
